# Experimental data as given in US7067619B2, “Integrin-binding peptides” (La Jolla Cancer Research Foundation, priority 1993, dated 2006).
# Bridge positions count the residues as written; N and C are the ends. Ends that are not written are not given here. Peptide text beside a SMILES is read from it.
# Columns and labels:
# [1] = target: αvβ3 integrin (Homo sapiens, UniProt P05106+P06756); experiment: Panning and binding of peptide-displaying phage on αvβ3 integrin; design: The αvβ3, αvβ5 and α5β1 integrins were isolated from human placental extracts; from tissue; host or cells: human placenta; details: phage-displayed sequence
# From the text: (§1) In addition, most of the phage-binding activity in the αvβ3 preparation was captured into microliter wells coated with antibodies against the αv or β3 subunits as described previously (Koivunen et al., J. Biol. Chem., 268:20205–10 (1993). The αIIbβ3 integrin was isolated from outdated platelets (Pytela et al., Science, 231:1559–1562 (1986)).
# (§2) Peptide libraries were constructed in fuse 5 vector (Scott and Smith, Science 249:386–390 (1990)) as described previously (Koivunen et al., J. Cell Biol., 124:373–380 (1994). The CX5C, CX6C, CX7C and CX9 [SEQ ID NOs:39–42, respectively] libraries were prepared using synthetic oligonucleotides containing core sequences TGT(NNK)5TGT, TGT(NNK)6TGT, TGT(NNK)7TGT and TGT(NNK)9 [SEQ ID NOS:43–46, respectively] (N=equal molar mixture of A, C, G, T; K=G or T), respectively. The oligonucleotides were made double-stranded by PCR amplification with 5 cycles, purified and ligated to the N-terminus of pIII gene of fuse 5 vector. […]
# (§3) Binding of individual cloned phage to integrins was studied in microliter wells as described in Koivunen et al., J. Cell. […] Phage that were bound were determined by their ability to infect F-pilus positive K91kan bacteria. Bacteria were grown overnight in microliter wells in the presence of tetracycline and the absorbance indicative of bacterial growth was read at 600 nm with an ELISA plate reader.
# [2] = Precipitation behaviour of the peptide in solution; format: physicochemical; details: neutral pH
# [3] = system: α5β1 integrin; experiment: Inhibition of attachment of CHO C11 cells to fibronectin; format: cell-based, Chinese hamster
# From the text: Cell lines expressing different integrins were used to examine peptide inhibition of integrin function. A human melanoma cell line, C8161, a fibroblast cell line, WI-38, and an osteosarcoma cell line, MG-63 (described by Seftor et al., Canc. Res., 53:3411–3415 (1993); Vogel et al., J. Biol. Chem., 265:5934–5937 (1990); and Pytela et al. (1985), supra, respectively, each of which is incorporated herein by reference) attach to fibronectin through α5β1 integrin, as does B2/α27, a CHO cell line transfected with human α5. B2/C1, the control parental CHO line (Bauer et al., J. Cell. Biol. 116:477–487 (1992), which is incorporated herein by reference), attaches via […]. CHO cells C11 and NIH 3T3 cells express the endogenous Chinese hamster and mouse α5β1 integrins, respectively. The human melanoma cells, A375-M, attach to fibronectin through both α5β1 and α4β1 integrins (Mould et al., J. Biol. Chem. 265:4020–4024 (1990), which is incorporated herein by reference). CHO cell line B2/v7 express the αvβ1 integrin (Zhang et al., J. Cell. Biol. 122:235–242 (1993), which is incorporated herein by reference). […]
# Cell lines expressing fibronectin-binding integrins were used to determine peptide activities against these integrins in the cell attachment assay described by Ruoslahti et al., Meth. […] Bound cells were quantitated by staining with 0.1% amido black.
# [4] = target: T1, α5β1 integrin (Homo sapiens, UniProt P05556+P08648); experiment: Panning and binding of peptide-displaying phage on α5β1 integrin; details: phage-displayed sequence
# T1 construct: The αvβ3, αvβ5 and α5β1 integrins were isolated from human placental extracts; from tissue; host or cells: human placenta
# From the text: as §1
# Peptide libraries were constructed in fuse 5 vector (Scott and Smith, Science 249:386–390 (1990)) as described previously (Koivunen et al., J. Cell Biol., 124:373–380 (1994). The CX5C, CX6C, CX7C and CX9 [SEQ ID NOs:39–42, respectively] libraries were prepared using synthetic oligonucleotides containing core sequences TGT(NNK)5TGT, TGT(NNK)6TGT, TGT(NNK)7TGT and TGT(NNK)9 [SEQ ID NOS:43–46, respectively] (N=equal molar mixture of A, C, G, T; K=G or T), respectively. The oligonucleotides were made double-stranded by PCR amplification with 5 cycles, purified and ligated to the N-terminus of pIII gene of fuse 5 vector. The CX5C, CX6C, CX7C and CX9 [SEQ ID NOS:39–42, respectively] vectors were transfected into MC1061 cells using 16, 60, 263 and 250 electroporations, respectively. Bacteria were cultured for 24 hours in the presence of 20 μg/ml of tetracycline, and phage were collected from the supernatant by precipitation twice with polyethylene glycol. The phage pellets were dissolved at approximately 10^13 transducing units (TU)/ml in TBS buffer containing 0.02% NaN3 and stored at 4° C. The yields of the CX5C, CX6C, CX7C and CX9 [SEQ ID NOS:39–42, respectively] primary libraries were 3.5×10^8, 1.1×10^9, 4.5×10^5 and 3.5×10^8 clones, respectively. […]
# as §3
# [5] = target: αvβ5 integrin (Homo sapiens, UniProt P06756+P18084); experiment: Panning and binding of peptide-displaying phage on αvβ5 integrin; design: The αvβ3, αvβ5 and α5β1 integrins were isolated from human placental extracts; from tissue; host or cells: human placenta
# From the text: as §1, §2, §3
# Chain of αvβ5 integrin (P06756 31-889 limits assumed): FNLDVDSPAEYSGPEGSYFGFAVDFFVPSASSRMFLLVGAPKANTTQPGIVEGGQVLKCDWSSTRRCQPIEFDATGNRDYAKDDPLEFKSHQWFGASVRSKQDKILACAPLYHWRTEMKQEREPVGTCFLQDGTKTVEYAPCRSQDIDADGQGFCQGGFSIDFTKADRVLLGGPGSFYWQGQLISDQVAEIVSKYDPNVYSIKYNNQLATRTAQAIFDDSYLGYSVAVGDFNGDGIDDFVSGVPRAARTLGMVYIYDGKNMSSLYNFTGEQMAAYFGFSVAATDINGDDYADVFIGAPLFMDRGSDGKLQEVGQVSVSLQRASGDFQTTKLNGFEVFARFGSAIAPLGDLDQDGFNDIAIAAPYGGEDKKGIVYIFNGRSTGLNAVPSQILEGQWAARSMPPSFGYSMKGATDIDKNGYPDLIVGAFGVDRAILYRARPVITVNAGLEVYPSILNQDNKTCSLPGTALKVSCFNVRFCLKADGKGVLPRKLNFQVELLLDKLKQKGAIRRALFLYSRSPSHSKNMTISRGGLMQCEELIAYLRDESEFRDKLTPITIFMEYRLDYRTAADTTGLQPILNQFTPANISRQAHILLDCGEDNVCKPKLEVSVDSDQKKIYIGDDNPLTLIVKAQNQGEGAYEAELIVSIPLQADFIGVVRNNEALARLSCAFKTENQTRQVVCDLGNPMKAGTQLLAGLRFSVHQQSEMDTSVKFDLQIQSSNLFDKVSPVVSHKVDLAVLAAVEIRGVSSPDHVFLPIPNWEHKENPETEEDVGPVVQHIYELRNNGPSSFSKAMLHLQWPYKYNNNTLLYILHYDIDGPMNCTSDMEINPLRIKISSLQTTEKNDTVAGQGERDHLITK
# Chain of αvβ5 integrin (P06756 891-1048 partner limits assumed): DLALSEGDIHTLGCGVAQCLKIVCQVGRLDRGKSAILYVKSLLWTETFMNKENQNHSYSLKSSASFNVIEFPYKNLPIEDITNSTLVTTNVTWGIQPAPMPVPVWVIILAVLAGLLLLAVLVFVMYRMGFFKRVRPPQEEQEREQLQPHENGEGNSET
# Chain of αvβ5 integrin (P18084 24-799): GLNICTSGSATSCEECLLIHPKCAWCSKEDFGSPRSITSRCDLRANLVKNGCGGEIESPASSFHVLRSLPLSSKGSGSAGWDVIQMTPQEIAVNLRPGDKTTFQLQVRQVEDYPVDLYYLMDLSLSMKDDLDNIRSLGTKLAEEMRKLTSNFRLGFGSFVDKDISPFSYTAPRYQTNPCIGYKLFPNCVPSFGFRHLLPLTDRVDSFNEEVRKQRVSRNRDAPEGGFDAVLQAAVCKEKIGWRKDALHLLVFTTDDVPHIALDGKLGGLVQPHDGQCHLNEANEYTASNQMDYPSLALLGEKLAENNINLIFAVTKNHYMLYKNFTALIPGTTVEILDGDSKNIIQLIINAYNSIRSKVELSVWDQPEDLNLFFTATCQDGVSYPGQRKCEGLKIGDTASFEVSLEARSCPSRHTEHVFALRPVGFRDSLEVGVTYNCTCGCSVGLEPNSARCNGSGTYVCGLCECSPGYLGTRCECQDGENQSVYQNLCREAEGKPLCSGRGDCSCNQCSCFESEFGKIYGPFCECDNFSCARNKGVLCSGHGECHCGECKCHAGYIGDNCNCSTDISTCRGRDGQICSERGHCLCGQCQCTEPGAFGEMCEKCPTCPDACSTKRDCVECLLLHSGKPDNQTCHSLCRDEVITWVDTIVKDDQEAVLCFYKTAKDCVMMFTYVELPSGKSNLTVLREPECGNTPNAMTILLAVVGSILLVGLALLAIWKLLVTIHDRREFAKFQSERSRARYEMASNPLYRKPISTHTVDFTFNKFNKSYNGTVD
# T1 sequence (P08648 42-894 limits assumed): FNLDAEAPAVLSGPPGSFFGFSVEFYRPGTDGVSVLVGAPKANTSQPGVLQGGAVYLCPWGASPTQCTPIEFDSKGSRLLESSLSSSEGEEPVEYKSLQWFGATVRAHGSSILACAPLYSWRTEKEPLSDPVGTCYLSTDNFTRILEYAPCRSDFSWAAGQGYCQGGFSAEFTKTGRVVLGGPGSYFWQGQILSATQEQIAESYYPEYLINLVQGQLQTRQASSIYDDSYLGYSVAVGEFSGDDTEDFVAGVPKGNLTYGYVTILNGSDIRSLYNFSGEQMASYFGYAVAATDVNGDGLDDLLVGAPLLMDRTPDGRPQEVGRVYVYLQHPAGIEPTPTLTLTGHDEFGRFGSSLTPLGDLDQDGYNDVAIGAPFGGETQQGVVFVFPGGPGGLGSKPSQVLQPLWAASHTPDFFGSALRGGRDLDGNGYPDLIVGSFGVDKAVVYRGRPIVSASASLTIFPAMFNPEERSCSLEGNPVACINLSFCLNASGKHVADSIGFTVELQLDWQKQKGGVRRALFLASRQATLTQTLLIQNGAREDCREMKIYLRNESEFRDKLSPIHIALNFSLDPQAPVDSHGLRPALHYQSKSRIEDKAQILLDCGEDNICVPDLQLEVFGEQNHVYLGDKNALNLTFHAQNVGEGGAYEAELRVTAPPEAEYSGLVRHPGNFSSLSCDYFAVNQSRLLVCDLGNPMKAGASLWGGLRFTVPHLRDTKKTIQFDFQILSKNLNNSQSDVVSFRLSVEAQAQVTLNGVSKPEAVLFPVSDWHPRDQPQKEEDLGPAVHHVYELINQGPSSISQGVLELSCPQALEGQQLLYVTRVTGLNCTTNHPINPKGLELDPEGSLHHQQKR
# T1 sequence (P08648 895-1049 partner limits assumed): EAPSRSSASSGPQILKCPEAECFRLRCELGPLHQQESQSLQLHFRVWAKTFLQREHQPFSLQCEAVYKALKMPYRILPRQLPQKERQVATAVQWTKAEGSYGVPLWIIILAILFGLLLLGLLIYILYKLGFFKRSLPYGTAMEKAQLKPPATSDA
# T1 sequence (P05556 21-798): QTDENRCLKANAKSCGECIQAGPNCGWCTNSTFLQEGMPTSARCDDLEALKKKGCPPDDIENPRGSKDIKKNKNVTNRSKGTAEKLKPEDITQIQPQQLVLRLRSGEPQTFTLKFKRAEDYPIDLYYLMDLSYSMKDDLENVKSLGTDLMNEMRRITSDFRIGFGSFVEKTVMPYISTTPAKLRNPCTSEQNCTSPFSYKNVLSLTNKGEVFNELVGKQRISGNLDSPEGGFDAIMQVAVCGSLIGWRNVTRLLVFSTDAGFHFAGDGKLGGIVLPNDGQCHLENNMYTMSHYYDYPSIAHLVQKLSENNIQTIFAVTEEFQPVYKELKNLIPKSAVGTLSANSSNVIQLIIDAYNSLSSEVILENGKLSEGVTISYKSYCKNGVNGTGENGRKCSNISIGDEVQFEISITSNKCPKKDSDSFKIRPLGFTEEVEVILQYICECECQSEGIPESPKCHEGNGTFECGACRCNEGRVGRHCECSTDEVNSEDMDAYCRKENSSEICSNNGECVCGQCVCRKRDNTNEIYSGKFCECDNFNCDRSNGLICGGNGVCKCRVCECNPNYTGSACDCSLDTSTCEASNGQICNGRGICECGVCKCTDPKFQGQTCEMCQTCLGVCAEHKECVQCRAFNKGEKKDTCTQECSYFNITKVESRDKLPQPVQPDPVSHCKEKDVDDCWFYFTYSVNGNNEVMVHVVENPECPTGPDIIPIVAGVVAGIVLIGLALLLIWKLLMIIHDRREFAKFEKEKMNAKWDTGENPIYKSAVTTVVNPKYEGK
# Chain of αvβ3 integrin (P06756 31-889 limits assumed): as the sequence (P06756 31-889 limits assumed) above
# Chain of αvβ3 integrin (P06756 891-1048 partner limits assumed): as the sequence (P06756 891-1048 partner limits assumed) above
# Chain of αvβ3 integrin (P05106 27-788): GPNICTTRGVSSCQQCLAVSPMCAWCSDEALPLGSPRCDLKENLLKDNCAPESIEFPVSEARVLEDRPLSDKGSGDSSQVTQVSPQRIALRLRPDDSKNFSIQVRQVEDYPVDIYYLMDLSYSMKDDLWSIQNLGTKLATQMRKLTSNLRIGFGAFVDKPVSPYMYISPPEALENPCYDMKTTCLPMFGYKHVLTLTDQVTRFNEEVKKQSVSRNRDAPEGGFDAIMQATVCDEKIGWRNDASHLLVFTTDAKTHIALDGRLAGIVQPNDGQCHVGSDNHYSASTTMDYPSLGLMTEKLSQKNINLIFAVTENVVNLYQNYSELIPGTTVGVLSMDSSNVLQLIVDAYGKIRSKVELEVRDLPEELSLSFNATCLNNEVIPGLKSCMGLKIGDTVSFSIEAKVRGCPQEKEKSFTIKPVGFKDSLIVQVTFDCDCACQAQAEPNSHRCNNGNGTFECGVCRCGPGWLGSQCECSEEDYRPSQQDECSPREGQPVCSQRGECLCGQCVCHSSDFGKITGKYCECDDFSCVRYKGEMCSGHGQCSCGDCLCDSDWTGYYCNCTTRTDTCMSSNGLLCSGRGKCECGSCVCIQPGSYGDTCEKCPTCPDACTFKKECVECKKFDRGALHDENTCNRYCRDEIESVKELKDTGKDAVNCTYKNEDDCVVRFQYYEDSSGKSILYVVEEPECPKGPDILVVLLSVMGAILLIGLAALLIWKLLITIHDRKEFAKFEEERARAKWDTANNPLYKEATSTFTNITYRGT
molecule,measurement,setting,value
A*CPSRLDSPC*G (ACPSRLDSPCG; disulfide 2-10 (inferred)),binding of peptide-displaying phage to the αvβ3 integrin,[1],bound to αvβ3
same,precipitation of the peptide,[2],tendency of the peptide precipitate at neutral pH
GACRRETAWACGA,blocking of attachment of CHO C11 cells to fibronectin,[3],could not block
same,binding of peptide-displaying phage to the α5β1 integrin,[4],selectively bind
"C[C@H](N)C(=O)N[C@H]1CSSC[C@@H](C(=O)NCC(=O)O)NC(=O)[C@H](Cc2ccccc2)NC(=O)[C@@H]2CSSC[C@H](NC(=O)[C@H](CC(=O)O)NC1=O)C(=O)N[C@@H](CCCNC(=N)N)C(=O)NCC(=O)N[C@@H](CC(=O)O)C(=O)N2 (H-ACDCRGDCFCG-OH; disulfide 2-10, 4-8)",integrin preference of phage expressing the peptide,[5]; phage attachment experiments,bound preferentially to the αvβ5 integrin
same,binding of peptide-displaying phage to the αvβ5 integrin,[5]; phage-displayed sequence,bound strongly
